Entries after “also recorded” stand apart in the source; their conditions may differ. Where a name gives a salt, the structure may show the parent alone.
Assays:
[1] = target: T1, recombinant human tau 4R2N (Homo sapiens (Human), UniProt P10636); test: Confirmatory Assay (CONFA), SDS-PAGE quantification of tau monomer and oligomers; type: biochemical; conditions: tau target 300 nM, 3 hours room temperature, compound 0.098 uM-50 uM
Description: (§1) Bacterial recombinant human tau 4R2N (the largest isoform of tau in the central nervous system, 441 amino acids in length, Seq. ID 1) constructs with either 6X-His or StrepII N-terminal epitope tags were purified from bacterial lysate using denaturing conditions to prepare tau in its monomeric form.
CONFA Assay: Confirmatory Assay (CONFA) used as a secondary screen for confirming the mechanism of action of compounds identified as hits using the ALA assay. The assay is performed using a similar procedure as ALA except that it utilizes SDS-PAGE for visualization and quantification of tau monomer and aggregated species (dimer, trimer, tetramer, pentamer, etc.). Only a single construct of tau without epitope tags is necessary, but the assay can use the same target prepared for the ALA assay also.
For the CONFA assay, Tau target (300 nM) was prepared in buffer (Tris-HCl pH 7.4) and was incubated at room temperature for 3 hours with vehicle control (DMSO) and a dose range of a compound of the disclosure (0.098 uM-50 uM). Samples were mixed with an equal volume of 2×SDS sample buffer (4% SDS, 20% glycerol, 0.004% bromphenol blue, 125 mM Tris HCl, pH 7.0) to resolve tau monomer and disulfide-linked oligomers on 4-20% gradient polyacrylamide gels (Biorad) along with positive control (non-oligomerized tau target). The gels were stained with Oriole Fluorescent Gel Stain (BioRad) and imaged using the FluorChem R system (Protein Simple). AlphaView software (Protein Simple) was used for quantification of tau monomer and oligomers.

[2] = target: T1, recombinant human tau 4R2N; test: AlphaLisa Assay (ALA), primary screen for inhibition of tau oligomer formation; type: biochemical; conditions: tau target 300 nM, 4 hours room temperature, compound 0.098 uM-50 uM
Source text: as §1
ALA Assay: AlphaLisa Assay (ALA) was used as a primary screen for identifying compounds that inhibit tau oligomer formation. It is a bead based assay that only gives signal when the beads are in close proximity to each other. When the tau monomer (target) is incubated it forms higher order aggregates (dimer, trimer, tetramer, etc) so that when the donor and acceptor beads bind to the epitope tags of tau they are in close proximity and generate signal.
Tau target (equal mixture of each construct at 300 nM) was prepared in buffer (Tris-HCl pH 7.4) and was incubated in 96-well plates at room temperature for 4 hours with vehicle control (DMSO) and a dose range of a compound of the disclosure (0.098 uM-50 uM). AlphaLisa acceptor heads & donor beads with ligands to the epitope tags (Perkin Elmer) were diluted (final 20 ug/mL per bead) in bead buffer (25 mM HEPES pH 7.4, 100 mM NaCl, 0.1% Tween-20), added to the wells and incubated 1 hour at room temperature. The positive control (non-incubated target) & blank (no tau) were prepared and mixed with beads in bead buffer and the plate was read immediately using the EnVision plate reader (Perkin Elmer).

htau mice = test: htau mouse study, tolerability; type: in vivo; conditions: all doses (10, 40, 100 mg/kg in feed)
Description: (§2) Four groups of htau mice (n=25 per group) were treated from 2.5 to 6.5 months of age with 0, 10, 40 and 100 mg/kg of compound TO-0582 milled into feed. The study was performed independently and blinded. The primary endpoint of the study was reduction of insoluble tau aggregates in the brains of the mice with statistical significance. […] Methods for biochemical analyses of tau used in this study have been previously described (Acker C M et al. Sensitive quantitative assays for tau and phospho-tau in transgenic mouse models. Neurobiol Aging. 2013. 34:338). The results in FIG. 1 show in vivo efficacy of the compound in reducing tau pathology. Levels of insoluble tau in the cortices of htau mice treated with compound TO-0582 (example 21) were determined using the pan-tau monoclonal antibody (mAb) DA31. These values were normalized to total tau in the lysates of the cortex of each mouse. Error bars indicate standard error of the mean. The P values of comparisons of the groups treated with 10, 40 or 100 mg/kg TO-0582 to the control group (white bar, 0 mg/kg) are 0.0503 (horizontal hatch bar, 10 mg/kg), 0.0154 (diagonal hatch bar, 40 mg/kg) and 0.0488 (vertical hatch bar, 100 mg/kg). * indicates P value <0.05.

[3] = tested on: insoluble tau aggregates in the brains of htau mice; test: htau mouse study, insoluble tau in cortex (mAb DA31); type: in vivo
Description: as §2

T1 sequence (P10636 other isoform, or with tags, fused parts or gaps): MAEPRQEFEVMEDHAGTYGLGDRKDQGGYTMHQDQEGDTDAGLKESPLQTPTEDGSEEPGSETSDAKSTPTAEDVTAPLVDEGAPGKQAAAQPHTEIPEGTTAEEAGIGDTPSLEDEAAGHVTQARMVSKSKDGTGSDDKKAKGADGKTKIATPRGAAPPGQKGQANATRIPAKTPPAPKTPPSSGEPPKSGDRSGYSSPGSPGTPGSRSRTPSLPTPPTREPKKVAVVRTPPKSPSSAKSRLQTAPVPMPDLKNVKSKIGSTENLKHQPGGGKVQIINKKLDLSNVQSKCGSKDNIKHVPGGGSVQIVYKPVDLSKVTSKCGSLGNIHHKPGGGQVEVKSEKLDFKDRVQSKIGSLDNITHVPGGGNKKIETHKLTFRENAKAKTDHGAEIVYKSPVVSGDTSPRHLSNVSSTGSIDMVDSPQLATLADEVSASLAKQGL

Structure (SMILES)	IC50 [1] [µM]	IC50 [2] [µM]	further results
O=c1c2ccccc2nc(-c2cccnc2)n1-c1ccc(Cl)c(O)c1 [Ex. 2, 3-(4-Chloro-3-hydroxyphenyl)-2-(pyridin-3-yl)quinazolin-4(3H)-one hydrochloride]	31.9	5.78	–
O=c1c2ccccc2nc(-c2cccnc2)n1CCCCO [Ex. 3, 3-(4-Hydroxybutyl)-2-(pyridin-3-yl)quinazolin-4(3H)-one hydrochloride]	8.94	9.93	–
O=c1c2ccccc2nc(-c2cccnc2)n1-c1cccc(OCc2ccccc2)c1 [Ex. 4, 3-(3-(Benzyloxy)phenyl)-2-(pyridin-3-yl)quinazolin-4(3H)-one hydrochloride]	3.19	7.8	–
O=c1[nH]c(-c2cccnc2)nc2cnccc12 [Ex. 6, 2-(Pyridin-3-yl)pyrido[3,4-d]pyrimidin-4(3H)-one dihydrochloride]	59.2	–	–
CN1CC(C(=O)Nc2ccc(-c3nc4ccccc4c(=O)n3-c3cccnc3)cc2)C1 [Ex. 7, N-(4-(3,4-Dihydro-4-oxo-3-(pyridin-3-yl)quinazolin-2-yl)phenyl)-1-methylazetidine-3-carboxamide dihydrochloride]	12.1	9.6	–
CN1CC(C(=O)Nc2ccc(-c3nc4ccsc4c(=O)[nH]3)cc2)C1 [Ex. 9, N-(4-(3,4-Dihydro-4-oxothieno[3,2-d]pyrimidin-2-yl)phenyl)-1-methyl azetidine-3-carboxamide hydrochloride]	62.4	6.89	–
O=c1c2sccc2nc(-c2cccnc2)n1-c1cccnc1 [Ex. 10, 2,3-Di(pyridin-3-yl)thieno[3,2-d]pyrimidin-4(3H)-one]	–	26.3	–
Cc1ccc(-n2c(-c3cccnc3)nc3ccsc3c2=O)cc1O [Ex. 11, 3-(3-Hydroxy-4-methylphenyl)-2-(pyridin-3-yl)thieno[3,2-d]pyrimidin-4(3H)-one]	57	17.1	–
COc1ccc(-n2c(-c3ccc(NC(C)=O)cc3)nc3ccsc3c2=O)cn1 [Ex. 13, N-(4-(3,4-Dihydro-3-(6-methoxypyridin-3-yl)-4-oxothieno[3,2-d]pyrimidin-2-yl)phenyl)acetamide]	–	13.6	–
COc1ccc(-n2c(-c3cccnc3)nc3ccsc3c2=O)cn1 [Ex. 14, 3-(6-Methoxypyridin-3-yl)-2-(pyridin-3-yl)thieno[3,2-d]pyrimidin-4(3H)-one dihydrochloride]	22.3	6.25	–
O=c1[nH]c(-c2cccnc2)nc2ccsc12 [Ex. 15, 2-(pyridin-3-yl)thieno[3,2-d]pyrimidin-4(3H)-one]	7.6	3.72	–
CCc1ccc(-n2c(-c3ccc(NC(C)=O)cc3)nc3ccsc3c2=O)cc1O [Ex. 16, N-(4-(3-(4-ethyl-3-hydroxyphenyl)-4-oxo-3,4-dihydrothieno[3,2-d]pyrimidin-2-yl)phenyl)acetamide]	1.7	4.53	–
CCc1ccc(-n2c(-c3cccnc3)nc3ccccc3c2=O)cc1F [Ex. 17, 3-(3-Fluoro-4-ethylphenyl)-2-(pyridine-3-yl)quinazolin-4(3H)-one]	–	24.1	–
CCc1ccc(-n2c(-c3cccnc3)nc3ccccc3c2=O)cc1Br [Ex. 18, 3-(3-Bromo-4-ethylphenyl)-2-(pyridine-3-yl)quinazolin-4(3H)-one]	–	4.5	–
CCc1ccc2cc(-n3c(-c4cccnc4)nc4ccccc4c3=O)ccc2c1 [Ex. 19, 3-(2-Ethylnaphthalen-6-yl)-2-(pyridine-3-yl)quinazolin-4(3H)-one]	–	8.05	–
Cc1ccc(-n2c(-c3cccnc3)nc3ccccc3c2=O)cc1O [Ex. 20, 3-(4-Methyl-3-hydroxyphenyl)-2-(pyridin-3-yl)quinazolin-4(3H)-one hydrochloride]	4.18	1.9	–
O=c1c2ccccc2nc(-c2cccnc2)n1-c1cccc(O)c1 [Ex. 21, 3-(3-Hydroxyphenyl)-2-(pyridin-3-yl)quinazolin-4(3H)-one hydrochloride]	5.67	5.14	tolerability over the course of the study (htau mice): well tolerated; toxic effects on weight, behavior or morbidity (htau mice): did not cause toxic effects; reduction of insoluble tau, statistical significance ([3]; 40 mg/kg and 100 mg/kg doses, male htau mice): achieved with statistical significance; reduction of insoluble tau aggregates in the brains ([3]; htau mice, 10, 40 and 100 mg/kg milled into feed, 2.5 to 6.5 months of age, listed as TO-0582, hydrochloride): reduced insoluble tau at all doses; also recorded: achieved with statistical significance

Source: patent US20240158357A1, “NOVEL QUINAZOLINONES THAT INHIBIT THE FORMATION OF TAU OLIGOMERS AND THEIR METHOD OF USE” (OLIGOMERIX INC., priority 2019, published 2024)
